This note sets out measurements from patent publication US9346811B2, “6,7-dihydro-pyrazolo[1,5-a]pyrazin-4-ylamine derivatives useful as inhibitors of beta-secretase (BACE)” (JANSSEN PHARMACEUTICA NV, priority 2011, dated 2016).

In test [1] the test system is Aβ42 produced and secreted into the medium of human neuroblastoma SKNBE2 cells. As to the kind of experiment: Cellular αlisa assay in SKNBE2 cells, Aβ42. The format is cell-based. The note with it: SKNBE2 cells expressing hAPP695, 18 hours incubation; for IC50: Homo sapiens, SKNBE2, 18 h, read-out: Cellular αlisa assay in SKNBE2 cells Aβ42 pIC50 (converted). How it is done:
(§1) Cellular αlisa Assay in SKNBE2 Cells
(§2) In two αlisa assays the levels of Aβtotal and Aβ42 produced and secreted into the medium of human neuroblastoma SKNBE2 cells are quantified. The assay is based on the human neuroblastoma SKNBE2 expressing the wild type Amyloid Precursor Protein (hAPP695). The compounds are diluted and added to these cells, incubated for 18 hours and then measurements of Aβ42 and Aβtotal are taken. Aβtotal and Aβ42 are measured by sandwich αlisa. αlisa is a sandwich assay using biotinylated antibody AbN/25 attached to streptavidin coated beads and antibody Ab4G8 or cAb42/26 conjugated acceptor beads for the detection of Aβtotal and Aβ42 respectively. In the presence of Aβtotal or Aβ42, the beads come into close proximity. The excitation of the Donor beads provokes the release of singlet oxygen molecules that triggers a cascade of energy transfer in the Acceptor beads, resulting in light emission. Light emission is measured after 1 hour incubation (excitation at […] and emission at 615 nm).
(§3) A best-fit curve is fitted by a minimum sum of squares method to the plot of % Controlmin versus compound concentration.

The test system of a further test is brain levels of total Aβ. Description: In vivo efficacy: brain Aβtotal lowering (ELISA). The arrangement: species or system mouse. The text has this:
(§4) To determine whether acute administration of an Aβ42 peptide lowering agent would reduce Aβ peptide levels in vivo, non-transgenic rodents, e.g. mice or rats were used. Animals treated with the Aβ peptide lowering agent were examined and compared to those untreated or treated with vehicle and brain levels of soluble Aβ42 and total Aβ were quantitated by standard techniques, for example, using ELISA. Treatment periods varied from hours (h) to days and were adjusted based on the results of the Aβ42 lowering once a time course of onset of effect could be established.
(§5) A typical protocol for measuring Aβ42 lowering in vivo is shown but it is only one of many variations that could be used to optimize the levels of detectable Aβ. For example, Aβ peptide lowering compounds were formulated in 20% hydroxypropyl β cyclodextrin. The Aβ peptide lowering agents were administered as a single oral dose (p.o.) or a single subcutaneous dose (s.c.) to overnight fasted animals. After a certain time, usually 2 or 4 h (as indicated in Table 7), the animals were sacrificed and Aβ42 levels were analysed.
(§6) Blood was collected by decapitation and exsanguinations in EDTA-treated collection tubes. Blood was centrifuged at 1900 g for 10 minutes (min) at 4° C. and the plasma recovered and flash frozen for later analysis. The brain was removed from the cranium and hindbrain. The cerebellum was removed and the left and right hemisphere were separated. The left hemisphere was stored at −18° C. for quantitative analysis of test compound levels. The right hemisphere was rinsed with phosphate-buffered saline (PBS) buffer and immediately frozen on dry ice and stored at −80° C. until homogenization for biochemical assays.
(§7) Mouse brains from non-transgenic animals were resuspended in 8 volumes of 0.4% DEA (diethylamine)/50 mM NaCl containing protease inhibitors (Roche-11873580001 or 04693159001) per gram of tissue, e.g. for 0.158 g brain, add 1.264 ml of 0.4% DEA. All samples were homogenized in the FastPrep-24 system (MP Biomedicals) using lysing matrix D (MPBio #6913-100) at 6 m/s for 20 seconds. Homogenates were centrifuged at 221.300×g for 50 min. The resulting high speed supernatants were then transferred to fresh eppendorf tubes. Nine parts of supernatant were neutralized with 1 part 0.5 M Tris-HCl pH 6.8 and used to quantify Aβtotal and Aβ42.
(§8) To quantify the amount of Aβtotal and Aβ42 in the soluble fraction of the brain homogenates, Enzyme-Linked-Immunosorbent-Assays were used. Briefly, the standards (a dilution of synthetic Aβ1-40 and […], Bachem) were prepared in 1.5 ml Eppendorf tube in Ultraculture, with final concentrations ranging from 10000 to 0.3 pg/ml. The samples and standards were co-incubated with HRPO-labelled N-terminal antibody for Aβ42 detection and with the biotinylated mid-domain antibody 4G8 for Aβtotal detection. 50 μl of conjugate/sample or conjugate/standards mixtures were then added to the antibody-coated plate (the capture antibodies selectively recognize the C-terminal end of Aβ42, antibody JRF/cAβ42/26, for Aβ42 detection and the N-terminus of Aβ, antibody JRF/rAβ/2, for Aβtotal detection). The plate was allowed to incubate overnight at 4° C. in order to allow formation of the antibody-amyloid complex. Following this incubation and subsequent wash steps the ELISA for Aβ42 quantification was finished by addition of Quanta Blu fluorogenic peroxidase substrate according to the manufacturer's instructions (Pierce Corp., Rockford, Il.). A reading was performed after 10 to 15 min (excitation 320 nm/emission 420 nm).
For Aβtotal detection, a Streptavidine-Peroxidase-Conjugate was added, followed 60 min later by an additional wash step and addition of Quanta Blu fluorogenic peroxidase substrate according to the manufacturer's instructions (Pierce Corp., Rockford, Il.). A reading was performed after 10 to 15 min (excitation 320 nm/emission 420 nm).

Test [2] relates to brain levels of soluble Aβ42. Description: In vivo efficacy: brain Aβ42 lowering (ELISA). On the set-up: species or system mouse.
Description: as §4, §5, §6, §7, §8
In this model at least 20% Aβ42 lowering compared to untreated animals would be advantageous.
On the technique in general: An ELISA detects its analyte on a solid surface through an enzyme-linked reagent.

Test [3] relates to Aβtotal produced and secreted into the medium of human neuroblastoma SKNBE2 cells. As to the kind of experiment: Cellular αlisa assay in SKNBE2 cells, Aβtotal. The format is cell-based. The note with it: SKNBE2 cells expressing hAPP695, 18 hours incubation; for IC50: Homo sapiens, SKNBE2, 18 h, read-out: Cellular αlisa assay in SKNBE2 cells Aβtotal pIC50 (converted). How it is done: as §1, §2, §3

For test [4], the target named is recombinant BACE1 protein (Homo sapiens, UniProt P56817). Description: Biochemical FRET based assay. The note with it: recombinant BACE1 1 μg/ml, 120 min, pH 5.0; for IC50: read-out: Biochemical FRET based assay pIC50 (converted). An excerpt:
Biochemical FRET Based Assay
This assay is a Fluorescence Resonance Energy Transfer Assay (FRET) based assay. The substrate for this assay is an APP derived 13 amino acids peptide that contains the ‘Swedish’ Lys-Met/Asn-Leu mutation of the amyloid precursor protein (APP) β-secretase cleavage site. This substrate also contains two fluorophores: (7-methoxycoumarin-4-yl)acetic acid (Mca) is a fluorescent donor with excitation wavelength at 320 nm and emission at 405 nm and 2,4-Dinitrophenyl (Dnp) is a proprietary quencher acceptor. […] Upon cleavage by BACE1, the fluorophore Mca is separated from the quenching group Dnp, restoring the full fluorescence yield of the donor. The increase in fluorescence is linearly related to the rate of proteolysis (Koike H et al. J. Biochem. 1999, 126, 235-242). Briefly in a 384-well format recombinant BACE1 protein in a final concentration of 1 μg/ml is incubated for 120 min at room temperature with 10 μm substrate in incubation buffer (40 mM Citrate buffer pH 5.0, 0.04% PEG, 4% DMSO) in the absence or presence of compound. Next the amount of proteolysis is directly measured by fluorescence measurement at T=0 and T=120 (excitation at 320 nm and emission at 405 nm).

[5] abbreviates: 30 mg/kg p.o., 2 h after administration.
The mark [6] stands for this setting: 30 mg/kg p.o., 4 h. after administration.
Setting [7] is: 10 mg/kg p.o., 4 h. after administration.
The mark [8] stands for this setting: 5 mg/kg p.o., 4 h. after administration.

Sequence of recombinant BACE1 protein (P56817 46-501): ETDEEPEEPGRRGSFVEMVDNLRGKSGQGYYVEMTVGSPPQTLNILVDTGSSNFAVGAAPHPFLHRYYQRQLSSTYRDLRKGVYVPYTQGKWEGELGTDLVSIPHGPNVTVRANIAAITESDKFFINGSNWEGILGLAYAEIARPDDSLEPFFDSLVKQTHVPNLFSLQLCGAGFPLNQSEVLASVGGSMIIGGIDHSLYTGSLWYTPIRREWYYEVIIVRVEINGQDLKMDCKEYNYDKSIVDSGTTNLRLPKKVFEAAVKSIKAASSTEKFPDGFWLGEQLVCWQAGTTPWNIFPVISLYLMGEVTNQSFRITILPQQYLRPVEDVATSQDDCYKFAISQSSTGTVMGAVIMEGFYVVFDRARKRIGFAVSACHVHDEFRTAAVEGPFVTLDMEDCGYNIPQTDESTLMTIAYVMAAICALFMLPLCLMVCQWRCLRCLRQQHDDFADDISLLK

On to `COc1cnc(C(=O)Nc2cccc(C3(C)Cn4nc(C(F)(F)F)cc4C(N)=N3)c2)cn1` (single isomer, unassigned) [Compound 32], for which the “Cellular αlisa assay in SKNBE2 cells Aβ42 pIC50” value in test [1] was 7.76. For the same molecule, the “Aβtotal (% Ctrl)_Mean” value in the test with brain levels of total Aβ (setting [5]) is 58 % Ctrl. Moreover, the “Aβ42 (% Ctrl)_Mean” value in test [2] (setting [5]) was determined as 53 % Ctrl. In addition, the “Cellular αlisa assay in SKNBE2 cells Aβtotal pIC50” value in test [3] is on record as 7.84. Also, the “Biochemical FRET based assay pIC50” value in test [4] is recorded as 7.20.
Regarding `CC1(c2cccc(NC(=O)c3ccc(C#N)cn3)c2)Cn2nccc2C(N)=N1` (single isomer, unassigned) [Compound 7, (R*)-5-cyano-pyridine-2-carboxylic acid [3-(4-amino-6-methyl-6,7-dihydro-pyrazolo[1,5-a]pyrazin-6-yl)-phenyl]-amide], in test [1], the “Cellular αlisa assay in SKNBE2 cells Aβ42 pIC50” value is 8.66. Also, the “Aβtotal (% Ctrl)_Mean” value in the test on brain levels of total Aβ (setting [6]) was found to be 101 % Ctrl. Also, in test [2] (setting [6]), the “Aβ42 (% Ctrl)_Mean” value is listed as 88 % Ctrl. The “Cellular αlisa assay in SKNBE2 cells Aβtotal pIC50” value in test [3] was 8.69.
With `C[C@@]1(c2cc(NC(=O)c3ccc(F)cn3)ccc2F)Cn2nc(C(F)F)cc2C(N)=N1` [Compound 27, (R)-5-fluoro-pyridine-2-carboxylic acid [3-(4-amino-2-difluoromethyl-6-methyl-6,7-dihydro-pyrazolo[1,5-a]pyrazin-6-yl)-4-fluoro-phenyl]-amide], the results for the IC50 in test [1], in test [3] and in test [4] were 7.08 nM, 6.76 nM and 60.3 nM, respectively. Besides, in the test with brain levels of total Aβ (setting [7]), the “Aβtotal (% Ctrl)_Mean” value is given as 61 % Ctrl. Besides, the “Aβ42 (% Ctrl)_Mean” value in test [2] (setting [7]) was 55 % Ctrl.
As for `C[C@@]1(c2cc(NC(=O)c3ccc(F)cn3)ccc2F)Cn2nc(C#N)cc2C(N)=N1` [Compound 24, (R)-5-fluoro-pyridine-2-carboxylic acid [3-(4-amino-2-cyano-6-methyl-6,7-dihydro-pyrazolo[1,5-a]pyrazin-6-yl)-4-fluoro-phenyl]-amide], the IC50 in test [1] is 3.31 nM; in test [3], 3.89 nM; in test [4], 32.4 nM. In addition, the “Aβtotal (% Ctrl)_Mean” value with brain levels of total Aβ (setting [8]) was determined as 59 % Ctrl; in the test on brain levels of total Aβ (setting [6]), 31 % Ctrl. Moreover, the “Aβ42 (% Ctrl)_Mean” value worked out at 66 % Ctrl in test [2] (setting [8]) and 16 % Ctrl in test [2] (setting [6]).
Take `COc1cnc(C(=O)Nc2ccc(F)c([C@]3(C)Cn4nc(C#N)cc4C(N)=N3)c2)cn1` [Compound 23, (R)-5-methoxy-pyrazine-2-carboxylic acid [3-(4-amino-2-cyano-6-methyl-6,7-dihydro-pyrazolo[1,5-a]pyrazin-6-yl)-4-fluoro-phenyl]-amide]: the IC50 in test [1] was 1.78 nM; in test [3] it was 1.95 nM; in test [4], 39.8 nM. Also, in the test with brain levels of total Aβ (setting [7]), the “Aβtotal (% Ctrl)_Mean” value turned out to be 39 % Ctrl. Moreover, the “Aβ42 (% Ctrl)_Mean” value in test [2] (setting [7]) worked out at 45 % Ctrl.
For the molecule `CC1(c2cccc(NC(=O)c3ncc(Cl)cc3Cl)c2)Cn2nc(C(F)(F)F)cc2C(N)=N1` (single isomer, unassigned) [Compound 11, (R*)-3,5-dichloro-pyridine-2-carboxylic acid [3-(4-amino-6-methyl-2-trifluoromethyl-6,7-dihydro-pyrazolo[1,5-a]pyrazin-6-yl)-phenyl]-amide], the “Cellular αlisa assay in SKNBE2 cells Aβ42 pIC50” value in test [1] is reported as 7.94. Moreover, the “Aβtotal (% Ctrl)_Mean” value in the test with brain levels of total Aβ (setting [6]) turned out to be 84 % Ctrl. Further, the “Aβ42 (% Ctrl)_Mean” value in test [2] (setting [6]) is 89 % Ctrl. Also, the “Cellular αlisa assay in SKNBE2 cells Aβtotal pIC50” value in test [3] is reported as 8.01. Moreover, the IC50 in test [4] was 28.2 nM.
Regarding `COc1cnc(C(=O)Nc2ccc(F)c([C@]3(C)Cn4nc(C(F)F)cc4C(N)=N3)c2)cn1` [Compound 28, (R)-5-methoxy-pyrazine-2-carboxylic acid [3-(4-amino-2-difluoromethyl-6-methyl-6,7-dihydro-pyrazolo[1,5-a]pyrazin-6-yl)-4-fluoro-phenyl]-amide], the IC50 was 5.25 nM in test [1], 6.31 nM in test [3] and 69.2 nM in test [4]. Also, in the test on brain levels of total Aβ (setting [7]), the “Aβtotal (% Ctrl)_Mean” value is 50 % Ctrl. Also, the “Aβ42 (% Ctrl)_Mean” value in test [2] (setting [7]) came out at 39 % Ctrl.
